Measurements published in patent publication EP4752137A1, “NEW COMPOUNDS DERIVED FROM MORIN, METHOD FOR OBTAINING THEM AND THEIR USES” (Universidad de Sevilla, priority 2023, dated 2025).

Tests used:
IL-6 (Interleukin-6) = test: IL-6 production by ELISA in UVB-irradiated HaCaT keratinocytes; assay type: cell-based; conditions: for reduced IL-6 levels: 10 µM (highest concentration tested), 4 h pretreatment, UVB 50 mJ/cm^2, 24 h incubation
Protocol: For the evaluation of anti-inflammatory activity (Figure 2), HaCaT keratinocytes were pretreated for 4 h with the compounds morin (A), morin oxime obtained in Example 1 (B) and morin semicarbazone obtained in Example 1 (C) (2.5, 5 and 10 µM). They were then irradiated with UVB radiation at 50 mJ/cm^2, incubated for 24 h and IL-6 (Interleukin-6) production was assessed by ELISA. Results were expressed as pg/mL and bars represent ± SEM (n=5). […] Thus, it is worth noting that at the highest concentration tested (10 µM), morin oxime reduced IL-6 levels by 45% (Figure 2B) and morin semicarbazone by 28% (Figure 2C), compared to morin, with which a decrease of only 16% was observed (Figure 2A).
Finally, the combination of morin or the morin semicarbazone derivative from Example 1 with fucoxanthin induced a decrease in IL-6 production at all concentrations tested in a 1:1 proportion. It is worth mentioning that this reduction was more notable with the fucoxanthin+morin semicarbazone mixture at the 5-5 µM and 10-10 µM combinations (42% reduction) (Figure 6C) than with fucoxanthin+morin (38% reduction) (Figure 6B). […] The results were expressed as a percentage with respect to the irradiated control cells and the bars represented mean ± SEM (n = 4).

[1] = Solubility of the isolated crystals; assay type: physicochemical; conditions: solvents in words
Protocol: For the preparation of morin oxime, 0.03 g of morin dissolved in 5 mL of MeOH were used, 0.0206 g of hydroxylamine hydrochloride and 0.0206 g of sodium acetate were added. The mixture was left under constant stirring and reflux for 2.5 hours. After this time, the crude product of the reaction was tempered and poured onto wet ice generating a precipitate, which was washed with dichloromethane and methanol obtaining a yellow solid in 60% yield. […] 6.45 dd (J = 8.5; 2.1 Hz). 6.39 d (J = 2.1 Hz). 6.34 d (J = 1.9 Hz). 6.16 d (J = 1.9 Hz). NMR of ^13C δ 102.9. 122.0. 122.0. 144.3. 149.1. 149.4. 152.8. 153.1. 154.7. 155.9. 84.5. 89.5. 95.5. 95.5. 99.5. UV (EtOH) λmax (log ε) 210 (4.6). 265 (4.2). 390 (4.4). The preparation of the compound can be carried out using the above-mentioned method with 0.1 g of morin, 0.07 g of hydroxylamine hydrochloride and 0.07 g of sodium acetate.
For the preparation of morin semicarbazone, 0.03 g of morin dissolved in 5 mL of MeOH was used, 0.0332 g of semicarbazide hydrochloride and 0.0332 g of sodium acetate were added. The mixture was left under constant stirring and reflux for 3 hours. After this time, the crude product of the reaction was tempered and poured onto wet ice generating a precipitate, which was recovered by filtration obtaining a coffee solid in 76% yield. […] 10.71 sa. 9.77 sa. 7.22 d (J= 8.4 Hz). 6.37 d (J= 2.4 Hz). 6.33 dd (J= 8.4; 2.4 Hz). 6.28 d (J= 1.9 Hz). […]

[2] = UV-vis absorption spectra (molar extinction coefficient); assay type: physicochemical; conditions: UV-vis 200-500 nm; improvement relative to morin
From the text: As experimental evidence of the improvement in the photoprotective capacity of compounds synthesized in Example 1, a comparison was made of the absorption capacity in the UV-vis range between morin and nitrogen derivatives (Schiff bases).
The tangible improvement with chemical modification for the compounds synthesized in Example 1 is evident by comparing the molar extinction coefficient (ε) values. […] In a further analysis, it can be seen that the εmax of morin oxime is 60% better than that of morin, and εmax of morin semicarbazone is 40% better than that of morin. […] Therefore, an improvement can be achieved in the optimization of active ingredients used in the preparation of compositions, the purpose of which is directed towards photoprotection and a photoabsorbent flavonoid is contemplated in said formulation.

[3] = ABTS antioxidant capacity, Trolox curve as reference control; assay type: biochemical; conditions: ABTS technique
Protocol: First, the antioxidant capacity of the compounds was determined directly using the ABTS technique (2,2-azino-bis-3-benzo-thiazoline-6-sulfonic acid) at different concentrations of the compounds (morin and the compounds of Example 1), using as a reference control a curve of increasing concentrations of Trolox. […] Table 1. Antioxidant capacity of compounds

ROS = test: Intracellular ROS (dichlorodihydrofluorescein-diacetate technique) in UVB-irradiated HaCaT cells; assay type: cell-based
Protocol: For the evaluation of the antioxidant activity of morin semicarbazone obtained in Example 1, HaCaT cells were pre-treated with morin and semicarbazone at the selected concentrations for 4 h and then irradiated with UVB radiation at 50 mJ/cm^2. After 45 min, ROS levels were measured using the dichlorodihydrofluorescein-diacetate technique. […] The results were expressed as a percentage with respect to the irradiated cell control and the bars represented mean ± SEM (n=4).
This decrease was slightly greater with the fucoxanthin+morin semicarbazone mixture at the 1.25-1.25 µM and 2.5-2.5 µM combinations (41% reduction) (Figure 5C) than with fucoxanthin+morin (33% and 37% reduction, respectively) (Figure 5B). […] The results were expressed as a percentage with respect to the irradiated control cells and the bars represented mean ± SEM (n = 4).

[4] = fucoxanthin alone, highest concentration tested

εmax better than that of morin [2] | EC50 [3] | Trolox equivalency (EC50 sample/EC 50 Trolox) [3] | Compound | reduced IL-6 levels (IL-6 (Interleukin-6)) | solubility [1] | reduced ROS production (ROS; 10 µM, 4 h pretreatment, UVB 50 mJ/cm^2, 45 min, vs irradiated cell control) | ROS levels (result in words) (ROS; all concentrations tested, 4 h pretreatment, UVB 50 mJ/cm^2, 45 min) | IL-6 production reduction (IL-6 (Interleukin-6); [4]) | ROS reduction (ROS; [4])
40% | 12.3 ± 0.922 µM | 0.590 | NC(=O)NN=c1c(O)c(-c2ccc(O)cc2O)oc2cc(O)cc(O)c12 [Morin semicarbazone, 2-(2-(2,4-dihydroxyphenyl)-3,5,7-trihydroxy-4H-chromen-4-ylidene)hydrazine-1-carboxamide] | 28% | solubility in AcOEt, acetone, MeOH | up to 20% |  |  | 
 | 10.8 ± 2.21 µM | 0.517 | O=c1c(O)c(-c2ccc(O)cc2O)oc2cc(O)cc(O)c12 [Morin, 2-(2,4-dihydroxyphenyl)-3,5,7-trihydroxy-4H-chromen-4-one] | 16% |  |  | failed to reduce ROS levels at any of the concentrations tested |  | 
 | 20.8 ± 0.811 µM | 1 | Cc1c(C)c2c(c(C)c1O)CCC(C)(C(=O)O)O2 (stereo not shown) [Trolox, reference compound] |  |  |  |  |  | 
 |  |  | fucoxanthin [reference compound] |  |  |  |  | 30% | 34%
60% | 13.7 ± 0.768 µM | 0.658 | ON=c1c(O)c(-c2ccc(O)cc2O)oc2cc(O)cc(O)c12 [Morin oxime, 2-(2,4-dihydroxyphenyl)-3,5,7-trihydroxy-4H-chromen-4-one oxime] | 45% | soluble in AcOEt, acetone, MeOH, and partially soluble in water |  |  |  | 
